Measured values taken from patent US20230265116A1, “DEGRADATION OF (EGFR) BY CONJUGATION OF EGFR INHIBITORS WITH E3 LIGASE LIGAND AND METHODS OF USE” (BEIGENE, LTD., priority 2020, published 2023).
Read-outs that look alike come from different tables or passages of the source.

Legend:
[1] = test system: EGFR Del19/T790M/C797S (H1975-clone #28); assay: EGFR degradation HTRF assay, H1975-clone #28 DTC cells; format: cell-based
Procedure, shortened: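 H1975 clones stably overexpressing mutant EGFR, with endogenous EGFR knocked out by sgRNA and homozygosity confirmed by sequencing, were treated 16h at 37° C. with compounds in 0.2% DMSO (top final 10 uM, 5-fold, 8 doses). Lysates were read by HTRF (665/620 nm); DC50 and Dmax came from fitting % degradation versus DMSO control.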

[2] = target: T1, EGFR L858R/T790M/C797S (BaF3-LTC cells) (Homo sapiens, UniProt P00533, C797S/L858R/T790M); assay: EGFR degradation HTRF assay, BaF3-LTC cells; format: cell-based
T1 construct: expressed in transfected cells; host or cells: BaF3
Procedure, shortened: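 Cells treated 16 h at 37 °C, 5% CO2 in medium with 0.2% DMSO; top final concentration 10 uM, 5-fold dilution, 8 doses. Lysates read by HTRF (665/620 nm); degradation % versus DMSO high control, DC50 from four-parameter fit, Dmax as maximal degradation.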

[3] = H1975 # 28 DTC cells; maximum percentage of inhibition (degradation)
[4] = read-out: DC50(nM) H1975 # 28 DTC; H1975 # 28 DTC cells; EGFR degradation, IC50 (DC50) from curve fit
[5] = read-out: DC50(nM) BaF3-LTC; BaF3-LTC cells; EGFR degradation, IC50 (DC50) from curve fit
[6] = read-out: Dmax (%) BaF3-LTC, BaF3-LTC cells; maximum percentage of inhibition (degradation)
[7] = H1975 # 28 DTC cells; EGFR degradation, IC50 (DC50) from curve fit; read-out: DC50(nM) H1975 # 28 DTC
[8] = BaF3-LTC cells; EGFR degradation, IC50 (DC50) from curve fit; read-out: DC50(nM) BaF3-LTC
[9] = BaF3-LTC cells; maximum percentage of inhibition (degradation); read-out: Dmax (%) BaF3-LTC

T1 sequence (P00533 25-1210 T790M/C797S/L858R): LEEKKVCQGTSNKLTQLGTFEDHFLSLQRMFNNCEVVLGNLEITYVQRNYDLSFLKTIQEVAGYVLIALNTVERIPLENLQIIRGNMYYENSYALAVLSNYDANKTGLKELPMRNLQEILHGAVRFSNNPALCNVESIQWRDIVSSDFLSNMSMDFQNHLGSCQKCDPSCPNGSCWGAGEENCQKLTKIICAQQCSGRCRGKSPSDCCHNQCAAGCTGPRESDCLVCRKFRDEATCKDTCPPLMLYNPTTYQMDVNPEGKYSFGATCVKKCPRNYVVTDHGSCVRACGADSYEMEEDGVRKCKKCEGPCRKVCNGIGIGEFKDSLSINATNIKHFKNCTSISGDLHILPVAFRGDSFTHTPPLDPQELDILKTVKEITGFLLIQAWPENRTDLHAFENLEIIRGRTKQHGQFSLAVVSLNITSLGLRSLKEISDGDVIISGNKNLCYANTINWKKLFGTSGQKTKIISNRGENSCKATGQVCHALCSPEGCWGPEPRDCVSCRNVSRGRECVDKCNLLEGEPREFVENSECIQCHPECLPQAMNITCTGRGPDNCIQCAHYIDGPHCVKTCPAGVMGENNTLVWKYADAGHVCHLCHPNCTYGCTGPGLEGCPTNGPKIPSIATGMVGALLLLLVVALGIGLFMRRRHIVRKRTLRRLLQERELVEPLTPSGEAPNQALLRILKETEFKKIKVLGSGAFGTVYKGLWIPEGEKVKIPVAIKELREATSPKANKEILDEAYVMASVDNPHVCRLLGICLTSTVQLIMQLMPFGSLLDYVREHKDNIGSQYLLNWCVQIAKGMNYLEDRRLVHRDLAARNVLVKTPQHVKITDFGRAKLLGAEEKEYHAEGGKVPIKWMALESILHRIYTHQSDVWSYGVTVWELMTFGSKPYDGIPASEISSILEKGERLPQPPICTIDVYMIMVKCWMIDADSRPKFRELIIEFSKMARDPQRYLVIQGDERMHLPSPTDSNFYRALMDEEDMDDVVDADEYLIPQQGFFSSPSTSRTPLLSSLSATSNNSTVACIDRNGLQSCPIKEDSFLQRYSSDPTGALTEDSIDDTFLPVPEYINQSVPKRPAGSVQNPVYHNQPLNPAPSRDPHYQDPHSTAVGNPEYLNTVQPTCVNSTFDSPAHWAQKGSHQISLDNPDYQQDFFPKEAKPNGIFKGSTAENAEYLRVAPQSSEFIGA

Row | DC50 [1, 7] | DC50 [2, 8] | Dmax [2, 9] | Dmax (%) BaF3-LTC ([2]; BaF3-LTC cells; maximum percentage of inhibition (degradation)) | SMILES | Dmax (%) H1975 # 28 DTC [1, 3] | DC50 [1, 4] | DC50 [2, 5] | Dmax [2, 6]
1 |  |  |  |  | CCOc1cc(N2CCC(N3CCN(C(=O)[C@H]4CN(c5cc(F)cc6c5oc(=O)n6C5CCC(=O)NC5=O)CC4(C)C)CC3)CC2)c(CC)cc1Nc1ncc(Br)c(Nc2ccc3nc(CC)ccc3c2P(C)(C)=O)n1 (stereo partly drawn) [Example 480, 3-(7-((R)-4-(4-(1-(4-((5-bromo-4-((5-(dimethylphosphoryl)-2-ethylquinolin-6-yl)amino)pyrimidin-2-yl)amino)-5-ethoxy-2-ethylphenyl)piperidin-4-yl)piperazine-1-carbonyl)-3,3-dimethylpyrrolidin-1-yl)-5-fluoro-2-oxobenzo[d]oxazol-3(2H)-yl)piperidine-2,6-dione] | 69.54% | 7.82 nM | 18.9 nM | 89.4%
2 | 0.965 nM | 7.66 nM | 89.5% |  | CCOc1cc(N2CCC(N3CCN(CCc4c(F)cc5c(oc(=O)n5C5CCC(=O)NC5=O)c4F)CC3)CC2)c(CC)cc1Nc1ncc(Br)c(Nc2ccc3c(=O)n(CC)ncc3c2P(C)(C)=O)n1 (centres unmarked) [Example 629, 3-(6-(2-(4-(1-(4-((5-bromo-4-((5-(dimethylphosphoryl)-2-ethyl-1-oxo-1,2-dihydrophthalazin-6-yl)amino)pyrimidin-2-yl)amino)-5-ethoxy-2-ethylphenyl)piperidin-4-yl)piperazin-1-yl)ethyl)-5,7-difluoro-2-oxobenzo[d]oxazol-3(2H)-yl)piperidine-2,6-dione] | 71.58% |  |  | 
3 | 11 nM | 30.9 nM |  |  | CCOc1cc(N2CCC(N3CCN(C(=O)[C@H]4CN(c5cc(F)c([C@H]6CCC(=O)NC6=O)c(F)c5)CC4(C)C)CC3)CC2)c(CC)cc1Nc1ncc(Br)c(Nc2cc(F)c3nc(CC)ccc3c2P(C)(C)=O)n1 [Example 746, (R)-3-(4-((R)-4-(4-(1-(4-((5-bromo-4-((5-(dimethylphosphoryl)-2-ethyl-8-fluoroquinolin-6-yl)amino)pyrimidin-2-yl)amino)-5-ethoxy-2-ethylphenyl)piperidin-4-yl)piperazine-1-carbonyl)-3,3-dimethylpyrrolidin-1-yl)-2,6-difluorophenyl)piperidine-2,6-dione] | 77.61% |  |  | 
4 | 2.91 nM | 19.8 nM |  |  | CCOc1cc(N2CCC(N3CCN(C(=O)[C@H]4CN(c5cc(F)c([C@H]6CCC(=O)NC6=O)c(F)c5)CC4(C)C)CC3)CC2)c(CC)cc1Nc1ncc(Br)c(Nc2ccc3nc(C)ccc3c2P(C)(C)=O)n1 [Example 747, (R)-3-(4-((R)-4-(4-(1-(4-((5-bromo-4-((5-(dimethylphosphoryl)-2-methylquinolin-6-yl)amino)pyrimidin-2-yl)amino)-5-ethoxy-2-ethylphenyl)piperidin-4-yl)piperazine-1-carbonyl)-3,3-dimethylpyrrolidin-1-yl)-2,6-difluorophenyl)piperidine-2,6-dione] | 76.51% |  |  | 
5 |  |  |  |  | CCc1ccc2c(P(C)(C)=O)c(Nc3nc(Nc4cc(CC)c(N5CCC(N6CCN(C(=O)Cc7ccc8c(c7)oc(=O)n8C7CCC(=O)NC7=O)CC6)CC5)cc4OC)ncc3Br)ccc2n1 (centres unmarked) [Example 669, 3-(6-(2-(4-(1-(4-((5-bromo-4-((5-(dimethylphosphoryl)-2-ethylquinolin-6-yl)amino)pyrimidin-2-yl)amino)-2-ethyl-5-methoxyphenyl)piperidin-4-yl)piperazin-1-yl)-2-oxoethyl)-2-oxobenzo[d]oxazol-3(2H)-yl)piperidine-2,6-dione] | 73.26% | 0.59 nM | 4.06 nM | 91.1%
6 | 0.763 nM | 4.96 nM | 95.1% |  | CCc1cc(Nc2ncc(Br)c(Nc3ccc4nc(C(C)(C)O)ccc4c3P(C)(C)=O)n2)c(OC)cc1N1CCC(N2CCN(C(=O)[C@@H]3CCN(c4cc(F)c(C5CCC(=O)NC5=O)c(F)c4)C3)CC2)CC1 (stereo partly drawn) [Example 680, 3-(4-((R)-3-(4-(1-(4-((5-bromo-4-((5-(dimethylphosphoryl)-2-(2-hydroxypropan-2-yl)quinolin-6-yl)amino)pyrimidin-2-yl)amino)-2-ethyl-5-methoxyphenyl)piperidin-4-yl)piperazine-1-carbonyl)pyrrolidin-1-yl)-2,6-difluorophenyl)piperidine-2,6-dione] | 85.2% |  |  | 
7 | 3.22 nM | 19.7 nM | 90.4% |  | CCc1ccc2c(P(C)(C)=O)c(Nc3nc(Nc4cc(CC)c(N5CCC(N6CCN(C(=O)[C@@H]7CCN(c8cc(F)c(C9CCC(=O)NC9=O)c(F)c8)C7)CC6)CC5)cc4OC)ncc3Br)ccc2n1 (stereo partly drawn) [Example 515, 3-(4-((R)-3-(4-(1-(4-((5-bromo-4-((5-(dimethylphosphoryl)-2-ethylquinolin-6-yl)amino)pyrimidin-2-yl)amino)-2-ethyl-5-methoxyphenyl)piperidin-4-yl)piperazine-1-carbonyl)pyrrolidin-1-yl)-2,6-difluorophenyl)piperidine-2,6-dione] | 66.35% |  |  | 
8 | 0.707 nM | 8.12 nM | 85.9% |  | CCc1ccc2c(P(C)(C)=O)c(Nc3nc(Nc4cc(C5CC5)c(N5CCC(N6CCN(CCc7cc(F)c([C@H]8CCC(=O)NC8=O)c(F)c7)CC6)CC5)cc4OC)ncc3Br)ccc2n1 [Example 550, (R)-3-(4-(2-(4-(1-(4-((5-bromo-4-((5-(dimethylphosphoryl)-2-ethylquinolin-6-yl)amino)pyrimidin-2-yl)amino)-2-cyclopropyl-5-methoxyphenyl)piperidin-4-yl)piperazin-1-yl)ethyl)-2,6-difluorophenyl)piperidine-2,6-dione] | 87.71% |  |  | 
9 | 1 nM | 14.7 nM | 89.3% |  | CCc1ccc2c(P(C)(C)=O)c(Nc3nc(Nc4cc(CC)c(N5CCC(N6CCN(CC7CN(c8cc(F)c(C9CCC(=O)NC9=O)c(F)c8)C7)CC6)CC5)cc4OC)ncc3Br)ccc2n1 (centres unmarked) [Example 508, 3-(4-(3-((4-(1-(4-((5-bromo-4-((5-(dimethylphosphoryl)-2-ethylquinolin-6-yl)amino)pyrimidin-2-yl)amino)-2-ethyl-5-methoxyphenyl)piperidin-4-yl)piperazin-1-yl)methyl)azetidin-1-yl)-2,6-difluorophenyl)piperidine-2,6-dione] | 72.7% |  |  | 
10 | 0.695 nM | 2.5 nM | 96.2% |  | CCc1ccc2c(P(C)(C)=O)c(Nc3nc(Nc4cc(CC)c(N5CCC(N6CCN(CCc7cccc8c7n(C)c(=O)n8C7CCC(=O)NC7=O)CC6)CC5)cc4OC4CC4)ncc3Br)ccc2n1 (centres unmarked) [Example 585, 3-(4-(2-(4-(1-(4-((5-bromo-4-((5-(dimethylphosphoryl)-2-ethylquinolin-6-yl)amino)pyrimidin-2-yl)amino)-5-cyclopropoxy-2-ethylphenyl)piperidin-4-yl)piperazin-1-yl)ethyl)-3-methyl-2-oxo-2,3-dihydro-1H-benzo[d]imidazol-1-yl)piperidine-2,6-dione] | 79.08% |  |  | 
11 | 0.689 nM | 6.66 nM | 90.6% |  | CCc1cc(Nc2ncc(Br)c(Nc3ccc4nc(COC)ccc4c3P(C)(C)=O)n2)c(OC)cc1N1CCC(N2CCN(CCc3cc(F)c(C4CCC(=O)NC4=O)c(F)c3)CC2)CC1 (centres unmarked) [Example 690, 3-(4-(2-(4-(1-(4-((5-bromo-4-((5-(dimethylphosphoryl)-2-(methoxymethyl)quinolin-6-yl)amino)pyrimidin-2-yl)amino)-2-ethyl-5-methoxyphenyl)piperidin-4-yl)piperazin-1-yl)ethyl)-2,6-difluorophenyl)piperidine-2,6-dione] | 77.81% |  |  | 
12 | 5.69 nM | 83.4 nM |  | 86.27% | CCOc1cc(N2CCC(N3CCN(C[C@H]4CCN(c5cccc6c5oc(=O)n6C5CCC(=O)NC5=O)C4)CC3)CC2)c(CC)cc1Nc1ncc(Br)c(Nc2ccc3c(=O)n(CC)ncc3c2P(C)(C)=O)n1 (stereo partly drawn) [Example 611, 3-(7-((R)-3-((4-(1-(4-((5-bromo-4-((5-(dimethylphosphoryl)-2-ethyl-1-oxo-1,2-dihydrophthalazin-6-yl)amino)pyrimidin-2-yl)amino)-5-ethoxy-2-ethylphenyl)piperidin-4-yl)piperazin-1-yl)methyl)pyrrolidin-1-yl)-2-oxobenzo[d]oxazol-3(2H)-yl)piperidine-2,6-dione] | 70.37% |  |  | 
13 | 0.751 nM | 3.36 nM | 97.7% |  | CCc1cc(Nc2ncc(Br)c(Nc3ccc4nc(C)ccc4c3P(C)(C)=O)n2)c(OC)cc1N1CCC(N2CCN(C(=O)CC3CN(c4cc(F)c([C@H]5CCC(=O)NC5=O)c(F)c4)C3)CC2)CC1 (single isomer, unassigned) [Example 573] | 81.91% |  |  | 
